According to US12172974B2 (Biohaven Pharmaceutical Holding Company Ltd., priority 2012, dated 2024):

Tests used:
Format in all cases: in vitro ADME
[1] = Stability in Simulated Gastric Fluid (SGF); details: 37° C., 0.01 mg/mL
Method: (§1) Stability in Simulated Gastric Fluid (SGF) and Simulated Intestinal Fluid (SIF). Procedure from Baudy et. al. (J. Med. Chem. 2009, 52, 771-778) used. The physiological stability of prodrugs was determined by examining the stability of the compound in SGF, and SIF at 37° C. The compounds were prepared in a 9:1 mixture of the appropriate test component (SGF, SIF) and acetonitrile to a final concentration of 0.01 mg/mL. The samples were thoroughly mixed and maintained at 37° C. Each sample was injected consecutively onto an Agilent 1100 system (Luna C18, 3 μm, 50 mm×3 mm; 1 mL/min; mobile phase of 0.1% trifluoroacetic acid in water/0.1% trifluoroacetic acid in acetonitrile) after a 3 h period. The percent remaining of prodrug was calculated by comparing the area of prodrug compound versus riluzole generated. The identities of the parent compounds and conversion products were confirmed by LC/MS.

[2] = Stability in Simulated Intestinal Fluid (SIF); details: 37° C., 0.01 mg/mL
Method: as §1

[3] = Plasma stability in fresh mouse plasma; details: 1 uM, 37° C.
Method: (§2) Plasma Stability: Assessment of plasma stability was carried out by individual incubations of drug candidates in fresh mouse or human control plasma at a concentration of 1 uM for 1 hour at 37° C. After which, the samples were de-proteinized by addition of 2 volumes of acetonitrile containing 0.1% formic acid and internal standard, vortex mixed for 2 minutes and centrifuged at 4000 rpm for 10 minutes to pellet precipitated protein. The resulting supernatant containing the drug candidates was diluted 5-fold with water containing 0.1% formic acid and submitted to LC-MS/MS analysis. All determinations were done in triplicate. […]
(§3) LC-MS/MS Analysis: An aliquot from each incubation was analyzed by LC-MS/MS with SRM detection in the positive ionization mode using an ABSciex API 5500 QTrap Mass Spectrometer interfaced via the ABSciex Turbo V IonSpray source (ESI) to an Eksigent ExpressHT LC system. […] A fast gradient, from 15 to 85% organic in 2.5 minutes, with run time of 5.0 minutes, and flow rate of 50 ul/min was utilized. Peak areas were integrated using MultiQuant v2.0 software from ABSciex.

[4] = Metabolic stability in pooled mouse liver microsomes; details: mouse liver microsomes 0.5 mg/mL, 1 uM, 37° C., NADPH
Method: (§4) Metabolic Stability: In vitro metabolic stability was determined in pooled mouse or human liver microsomes (BD Gentest) at a protein concentration of 0.5 mg/mL in reaction buffer (100 mM KH2PO4, pH 7.4 and 12 mM MgCl2). Each drug candidate was added to a final concentration of 1 uM. This mixture was pre-warmed to 37° C. for 10 minutes prior to starting the reaction with the addition of β-Nicotinamide adenine dinucleotide 2′-phosphate reduced (NADPH) to a final concentration of 1 mM. A parallel incubation lacking NADPH served as the control. After incubation for 30 min at 37° C., the reactions were quenched by the addition of acetonitrile containing 0.1% formic acid and internal standard, vortex mixed for 2 minutes and centrifuged at 4000 rpm for 10 minutes to pellet the precipitated protein. The resulting supernatant containing the drug candidate and its potential metabolites was diluted 5-fold with water containing 0.1% formic acid and submitted to LC-MS/MS analysis. […]
as §3

[5] = Metabolic stability in pooled human liver microsomes; details: human liver microsomes 0.5 mg/mL, 1 uM, 37° C., NADPH
Method: as §4, §3

[6] = Plasma stability in fresh human plasma; details: 1 uM, 37° C.
Method: as §2, §3

SGF (3 hours): percent of prodrug metabolized to riluzole [1] | SIF (3 hours): percent of prodrug metabolized to riluzole [2] | Plasma Stability mouse (1 hour): percent of prodrug metabolized to riluzole [3] | Metabolic Stability mouse (30 minutes): percent of prodrug metabolized to riluzole [4] | Metabolic Stability human (30 minutes): percent of prodrug metabolized to riluzole [5] | Plasma Stability Human (1 hour): percent of prodrug metabolized to riluzole [6] | Structure (SMILES)
0% | 0% | 0% | 0% | 21% | 0% | CC(C)(C)OC(=O)CCC(=O)Nc1nc2ccc(OC(F)(F)F)cc2s1 [Cpd 22, N-(6-Trifluoromethoxy-benzothiazol-2-yl)-succinamic acid tert-butyl ester]
0% | 50% | – | – | – | – | NCC1(CC(=O)Nc2nc3ccc(OC(F)(F)F)cc3s2)CCCCC1 [Cpd 29, 2-(1-Aminomethyl-cyclohexyl)-N-(6-trifluoromethoxy-benzothiazol-2-yl)-acetamide]
0% | 0% | 0% | 71% | 0% | 0% | CN(C)CCCOC(=O)Nc1nc2ccc(OC(F)(F)F)cc2s1 [Cpd 19, (6-Trifluoromethoxy-benzothiazol-2-yl)-carbamic acid 3-dimethylamino-propyl ester]
0% | 40% | 45% | 40% | 6% | 11% | CC(C)[C@H](N)C(=O)Nc1nc2ccc(OC(F)(F)F)cc2s1 [Cpd 11, (S)-2-Amino-3-methyl-N-(6-trifluoromethoxy-benzothiazol-2-yl)-butyramide]
0% | 0% | 0% | 24% | 80% | 0% | Nc1ccc(C(=O)Nc2nc3ccc(OC(F)(F)F)cc3s2)cc1 [Cpd 28, 4-Amino-N-(6-trifluoromethoxy-benzothiazol-2-yl)-benzamide]
0% | 0% | 0% | 8% | 7% | 0% | CCOC(=O)Nc1nc2ccc(OC(F)(F)F)cc2s1 [Cpd 13, (6-Trifluoromethoxy-benzothiazol-2-yl)-carbamic acid ethyl ester]
0% | 60% | – | – | – | – | O=C(CCC(=O)Nc1nc2ccc(OC(F)(F)F)cc2s1)NCCN1CCOCC1 [Cpd 24, N-(2-Morpholin-4-yl-ethyl)-N′-(6-trifluoromethoxy-benzothiazol-2-yl)-succinamide]
0% | 0% | 0% | 66% | 19% | 5% | NCCCCC(=O)Nc1nc2ccc(OC(F)(F)F)cc2s1 [Cpd 26, 5-Amino-pentanoic acid (6-trifluoromethoxy-benzothiazol-2-yl)-amide]
0% | 0% | 9% | 53% | 13% | 0% | CCCCOC(=O)Nc1nc2ccc(OC(F)(F)F)cc2s1 [Cpd 15, (6-Trifluoromethoxy-benzothiazol-2-yl)-carbamic acid butyl ester]
0% | 0% | 0% | 59% | 22% | 13% | O=C(Cc1ccccc1[N+](=O)[O-])Nc1nc2ccc(OC(F)(F)F)cc2s1 [Cpd 27, 2-(2-Nitro-phenyl)-N-(6-trifluoromethoxy-benzothiazol-2-yl)-acetamide]
– | – | 11% | 4% | 7% | 3% | NCC(=O)Nc1nc2ccc(OC(F)(F)F)cc2s1 [Cpd 1, 2-Amino-N-(6-trifluoromethoxy-benzothiazol-2-yl)-acetamide]
0% | 0% | 3% | 13% | 10% | 0% | CN(C)CCOC(=O)Nc1nc2ccc(OC(F)(F)F)cc2s1 [Cpd 18, (6-Trifluoromethoxy-benzothiazol-2-yl)-carbamic acid 2-dimethylamino-ethyl ester]
0% | 10% | 26% | 0% | 4% | 0% | O=C(CCC(=O)Nc1nc2ccc(OC(F)(F)F)cc2s1)NCc1cccnc1 [Cpd 23, N-Pyridin-3-ylmethyl-N′-(6-trifluoromethoxy-benzothiazol-2-yl)-succinamide]
– | – | 0% | 2% | 0% | 7% | N[C@@H](Cc1ccccc1)C(=O)Nc1nc2ccc(OC(F)(F)F)cc2s1 [Cpd 9, (S)-2-Amino-3-phenyl-N-(6-trifluoromethoxy-benzothiazol-2-yl)-propionamide]
0% | 0% | 0% | 10% | 0% | 15% | COC(=O)Nc1nc2ccc(OC(F)(F)F)cc2s1 [Cpd 12, (6-Trifluoromethoxy-benzothiazol-2-yl)-carbamic acid methyl ester]
– | – | 25% | 24% | 0% | 3% | N[C@H](COCc1ccccc1)C(=O)Nc1nc2ccc(OC(F)(F)F)cc2s1 [Cpd 5, (R)-2-Amino-3-benzyloxy-N-(6-trifluoromethoxy-benzothiazol-2-yl)-propionamide]
0% | – | – | – | – | – | CCCCCCOC(=O)Nc1nc2ccc(OC(F)(F)F)cc2s1 [Cpd 17, (6-Trifluoromethoxy-benzothiazol-2-yl)-carbamic acid hexyl ester]
